Laboratory results as given in ChEMBL document CHEMBL5131566, “Small-Molecule Thioesters as SARS-CoV-2 Main Protease Inhibitors: Enzyme Inhibition, Structure-Activity Relationships, Antiviral Activity, and X-ray Structure Determination” (J Med Chem, 2022).

Test system: SARS-CoV-2
Experiment: microbe, parasite or virus in culture
Conditions: Severe acute respiratory syndrome coronavirus 2, Vero 76

SMILES | EC50 [nM]
Cc1ccnc(SC(=O)c2cc3ccccc3[nH]2)n1 | 185
CCC(CC)COC(=O)[C@H](C)N[P@](=O)(OC[C@H]1O[C@@](C#N)(c2ccc3c(N)ncnn23)[C@H](O)[C@@H]1O)Oc1ccccc1 | 2.63
O=C(Sc1nncs1)c1cc2ccccc2[nH]1 | 642
Cc1nnc(SC(=O)c2cc3ccccc3n2C)s1 | 4.58
O=C(Oc1cncc(Cl)c1)c1cccc2[nH]ccc12 | 9.59

Test system: Severe acute respiratory syndrome-related coronavirus
Experiment: Inhibition of recombinant SARS CoV-1 main protease expressed using MCA-AVLQSGFR-K(DNP)-K-NH2 as substrate at 10 uM incubated for 2 hrs by FRET based assay
Conditions: not given

SMILES | inhibition [%]
Cc1ccnc(SC(=O)c2cc3ccccc3[nH]2)n1 | > 50
Cc1nnc(SC(=O)c2cccc3cc[nH]c23)s1 | > 50
Cc1nnc(SC(=O)c2ccc(C#Cc3ccccc3)o2)s1 | > 50
Cc1nnc(SC(=O)c2ccc3ccccc3c2)s1 | > 50
O=C(Sc1ncccn1)c1ccc2ccccc2n1 | > 50
O=C(Sc1ncccn1)c1cc2ccccc2[nH]1 | > 50
O=C(Sc1nncs1)c1cc2ccccc2[nH]1 | > 50

Test system: not listed separately
Experiment: Inhibition of MERS-CoV -Mpro using Ac-Abu-Tle-Leu-Gln-ACC as substrate incubated for 2 hrs by FRET based assay
Set-up: species or system Middle East respiratory syndrome-related coronavirus
Conditions: not given

SMILES | IC50 [nM]
Cc1ccnc(SC(=O)c2cc3ccccc3[nH]2)n1 | 1310
Cc1nnc(SC(=O)c2ccc3[nH]ccc3c2)s1 | 945
Cc1nnc(SC(=O)c2ccc3cc[nH]c3c2)s1 | 271
Cc1nnc(SC(=O)c2cccc3cc[nH]c23)s1 | 196
Cc1nnc(SC(=O)c2cccc3[nH]ccc23)s1 | 486
Cc1nnc(SC(=O)c2ccc(C#Cc3ccccc3)o2)s1 | 378
Cc1nnc(SC(=O)c2ccc3ccccc3c2)s1 | 526
O=C(Sc1ncccn1)c1ccc(-c2ccccc2)o1 | 79
O=C(Sc1ncccn1)c1ccc2ccccc2n1 | 613
O=C(Sc1ncccn1)c1cc2ccccc2[nH]1 | 303
O=C(Sc1nncs1)c1cc2ccccc2[nH]1 | 535
Cc1nnc(SC(=O)c2cc3ccccc3n2C)s1 | 223
CSc1nnc(SC(=O)c2cc3ccccc3[nH]2)s1 | 1130
COc1nnc(SC(=O)c2cc3ccccc3[nH]2)s1 | 503
CC(C)C[C@H](NC(=O)OCc1ccccc1)C(=O)N[C@H](C=O)CC1CCNC1=O (stereo not given in full) | 78

Molecular target: T1, Replicase polyprotein 1ab (Severe acute respiratory syndrome coronavirus 2, UniProt P0DTD1)
Experiment: Inhibition of recombinant his tagged SARS CoV-2 main protease expressed in Escherichia coli BL21 assessed as inhibition constant using Boc-Abu-Tle-Leu-Gln-AMC37 as fluorogenic substrate pre-incubated for 5 mins followed by substrate addition measured after 60 mins by FRET based assay
Conditions: not given

SMILES | Ki [nM]
Cc1nnc(SC(=O)c2cc3ccccc3[nH]2)o1 | 119
Cc1nnc(SC(=O)c2ccc(-c3ccccc3)[nH]2)s1 | 605
Cc1cc(C)nc(SC(=O)c2cc3ccccc3[nH]2)n1 | 773
Cc1ccnc(SC(=O)c2cc3ccccc3[nH]2)n1 | 33.2
COc1ccc2cc([C@H](C)C(=O)Sc3ncccn3)ccc2c1 | 21
O=C(Sc1nc2ccccc2s1)c1ccc(-c2ccccc2)s1 | 42
Cc1nnc(SC(=O)c2ccc3[nH]ccc3c2)s1 | 393
Cc1nnc(SC(=O)c2ccc3cc[nH]c3c2)s1 | 186
Cc1nnc(SC(=O)c2cccc3cc[nH]c23)s1 | 250
O=C(Sc1nc2ccccc2s1)c1cc2ccccc2s1 | 161
Cc1nnc(SC(=O)c2ccc(C#Cc3ccccc3)o2)s1 | 34.4
Cc1nnc(SC(=O)c2ccc3ccccc3c2)s1 | 21.1
O=C(Sc1ncccn1)c1cc2ccccc2[nH]1 | 14.1
O=C(Sc1nncs1)c1cc2ccccc2[nH]1 | 74.4
Cc1nnc(SC(=O)c2cc3ccccc3n2C)s1 | 295
CSc1nnc(SC(=O)c2cc3ccccc3[nH]2)s1 | 43
COc1nnc(SC(=O)c2cc3ccccc3[nH]2)s1 | 84.4

Test system: Calu-3
Experiment: Cytotoxicity against human Calu-3 cells assessed as reduction in cell […] at 10 uM incubated for 24 hrs by cell titer glo luminescent assay
Format: toxicity, cell-based
Conditions: calu-3, 24 h

SMILES | Activity
Cc1ccnc(SC(=O)c2cc3ccccc3[nH]2)n1 | Non-Toxic
CCC(CC)COC(=O)[C@H](C)N[P@](=O)(OC[C@H]1O[C@@](C#N)(c2ccc3c(N)ncnn23)[C@H](O)[C@@H]1O)Oc1ccccc1 | Non-Toxic
Cc1nnc(SC(=O)c2ccc3[nH]ccc3c2)s1 | Non-Toxic
Cc1nnc(SC(=O)c2ccc3cc[nH]c3c2)s1 | Non-Toxic
Cc1nnc(SC(=O)c2cccc3cc[nH]c23)s1 | Non-Toxic
Cc1nnc(SC(=O)c2cccc3[nH]ccc23)s1 | Non-Toxic
Cc1nnc(SC(=O)c2ccc(C#Cc3ccccc3)o2)s1 | Non-Toxic
Cc1nnc(SC(=O)c2ccc3ccccc3c2)s1 | Non-Toxic
O=C(Sc1ncccn1)c1ccc(-c2ccccc2)o1 | Non-Toxic
O=C(Sc1ncccn1)c1ccc2ccccc2n1 | Non-Toxic
O=C(Sc1ncccn1)c1cc2ccccc2[nH]1 | Non-Toxic
O=C(Sc1nncs1)c1cc2ccccc2[nH]1 | Non-Toxic
Cc1nnc(SC(=O)c2cc3ccccc3n2C)s1 | Non-Toxic
CSc1nnc(SC(=O)c2cc3ccccc3[nH]2)s1 | Non-Toxic
COc1nnc(SC(=O)c2cc3ccccc3[nH]2)s1 | Non-Toxic
O=C(Oc1cncc(Cl)c1)c1cccc2[nH]ccc12 | Non-Toxic

Test system: Vero 76
Experiment: Cytotoxicity against African green monkey Vero 76 cells assessed as reduction in cell […] at 10 uM incubated for 24 hrs by cell titer glo luminescent assay
Format: toxicity, cell-based
Conditions: chlorocebus sabaeus, vero 76, 24 h

SMILES | Activity
Cc1ccnc(SC(=O)c2cc3ccccc3[nH]2)n1 | Non-Toxic
CCC(CC)COC(=O)[C@H](C)N[P@](=O)(OC[C@H]1O[C@@](C#N)(c2ccc3c(N)ncnn23)[C@H](O)[C@@H]1O)Oc1ccccc1 | Non-Toxic
Cc1nnc(SC(=O)c2ccc3[nH]ccc3c2)s1 | Non-Toxic
Cc1nnc(SC(=O)c2ccc3cc[nH]c3c2)s1 | Non-Toxic
Cc1nnc(SC(=O)c2cccc3cc[nH]c23)s1 | Non-Toxic
Cc1nnc(SC(=O)c2cccc3[nH]ccc23)s1 | Non-Toxic
Cc1nnc(SC(=O)c2ccc(C#Cc3ccccc3)o2)s1 | Non-Toxic
Cc1nnc(SC(=O)c2ccc3ccccc3c2)s1 | Non-Toxic
O=C(Sc1ncccn1)c1ccc(-c2ccccc2)o1 | Non-Toxic
O=C(Sc1ncccn1)c1ccc2ccccc2n1 | Non-Toxic
O=C(Sc1ncccn1)c1cc2ccccc2[nH]1 | Non-Toxic
O=C(Sc1nncs1)c1cc2ccccc2[nH]1 | Non-Toxic
Cc1nnc(SC(=O)c2cc3ccccc3n2C)s1 | Non-Toxic
CSc1nnc(SC(=O)c2cc3ccccc3[nH]2)s1 | Non-Toxic
COc1nnc(SC(=O)c2cc3ccccc3[nH]2)s1 | Non-Toxic
O=C(Oc1cncc(Cl)c1)c1cccc2[nH]ccc12 | Non-Toxic

Test system: not listed separately
Experiment: Inhibition of recombinant SARS CoV-1 main protease expressed using MCA-AVLQSGFR-K(DNP)-K-NH2 as substrate incubated for 2 hrs by FRET based assay
Set-up: species or system Severe acute respiratory syndrome-related coronavirus
Conditions: not given

SMILES | IC50 [nM]
Cc1ccnc(SC(=O)c2cc3ccccc3[nH]2)n1 | 1520
Cc1nnc(SC(=O)c2ccc3[nH]ccc3c2)s1 | 7350
Cc1nnc(SC(=O)c2cccc3cc[nH]c23)s1 | 2150
Cc1nnc(SC(=O)c2ccc(C#Cc3ccccc3)o2)s1 | 2760
Cc1nnc(SC(=O)c2ccc3ccccc3c2)s1 | 1650
O=C(Sc1ncccn1)c1ccc2ccccc2n1 | 253
O=C(Sc1ncccn1)c1cc2ccccc2[nH]1 | 60
O=C(Sc1nncs1)c1cc2ccccc2[nH]1 | 3210
CC(C)C[C@H](NC(=O)OCc1ccccc1)C(=O)N[C@H](C=O)CC1CCNC1=O (stereo not given in full) | 44.6

Molecular target: Replicase polyprotein 1ab (Severe acute respiratory syndrome coronavirus 2) (UniProt P0DTD1)
Experiment: Time dependent inhibition of recombinant his tagged SARS CoV-2 main protease expressed in Escherichia coli BL21 assessed as ratio of Kinact/Ki using MCA-AVLQSGFR-K(DNP)-K-NH2 as substrate pre-incubated for 5 mins followed by substrate addition measured after 60 mins by FRET based assay
Conditions: not given

SMILES | Ratio [M⁻¹ s⁻¹]
Cc1nnc(SC(=O)c2cc3ccccc3[nH]2)o1 | 3880
Cc1nnc(SC(=O)c2ccc(-c3ccccc3)[nH]2)s1 | 5070
Cc1cc(C)nc(SC(=O)c2cc3ccccc3[nH]2)n1 | 1790
COc1ccc2cc([C@H](C)C(=O)Sc3ncccn3)ccc2c1 | 33900
O=C(Sc1nc2ccccc2s1)c1ccc(-c2ccccc2)s1 | 2100
Cc1nnc(SC(=O)c2ccc3[nH]ccc3c2)s1 | 3370
Cc1nnc(SC(=O)c2ccc3cc[nH]c3c2)s1 | 5850
O=C(Sc1nc2ccccc2s1)c1cc2ccccc2s1 | 2000
Cc1nnc(SC(=O)c2ccc(C#Cc3ccccc3)o2)s1 | 5200
CSc1nnc(SC(=O)c2cc3ccccc3[nH]2)s1 | 11800

Molecular target: T1, Replicase polyprotein 1ab
Experiment: Inhibition of recombinant his tagged SARS CoV-2 main protease expressed in Escherichia coli BL21 using Boc-Abu-Tle-Leu-Gln-AMC37 as fluorogenic substrate pre-incubated for 5 mins followed by substrate addition measured after 60 mins by FRET based assay
Conditions: not given

SMILES | IC50 [nM]
Cc1nnc(SC(=O)c2cc3ccccc3[nH]2)o1 | 1220
Cc1nnc(SC(=O)c2ccc(-c3ccccc3)[nH]2)s1 | 235
Cc1cc(C)nc(SC(=O)c2cc3ccccc3[nH]2)n1 | 2030
Cc1ccnc(SC(=O)c2cc3ccccc3[nH]2)n1 | 87.6
COc1ccc2cc([C@H](C)C(=O)Sc3ncccn3)ccc2c1 | 551
O=C(Sc1nc2ccccc2s1)c1ccc(-c2ccccc2)s1 | 125
Cc1nnc(SC(=O)c2ccc3[nH]ccc3c2)s1 | 72.3
Cc1nnc(SC(=O)c2ccc3cc[nH]c3c2)s1 | 54.7
Cc1nnc(SC(=O)c2cccc3cc[nH]c23)s1 | 159
Cc1nnc(SC(=O)c2cccc3[nH]ccc23)s1 | 60
O=C(Sc1nc2ccccc2s1)c1cc2ccccc2s1 | 190
Cc1nnc(SC(=O)c2ccc(C#Cc3ccccc3)o2)s1 | 250
Cc1nnc(SC(=O)c2ccc3ccccc3c2)s1 | 454
O=C(Sc1ncccn1)c1ccc(-c2ccccc2)o1 | 18.1
O=C(Sc1ncccn1)c1ccc2ccccc2n1 | 20.6
O=C(Sc1ncccn1)c1cc2ccccc2[nH]1 | 11.4
O=C(Sc1nncs1)c1cc2ccccc2[nH]1 | 143
Cc1nnc(SC(=O)c2cc3ccccc3n2C)s1 | 349
CSc1nnc(SC(=O)c2cc3ccccc3[nH]2)s1 | 91.4
COc1nnc(SC(=O)c2cc3ccccc3[nH]2)s1 | 147

Test system: SARS-CoV-2
Experiment: microbe, parasite or virus in culture
Conditions: Severe acute respiratory syndrome coronavirus 2, Calu-3

SMILES | EC50 [nM]
Cc1ccnc(SC(=O)c2cc3ccccc3[nH]2)n1 | 734
CCC(CC)COC(=O)[C@H](C)N[P@](=O)(OC[C@H]1O[C@@](C#N)(c2ccc3c(N)ncnn23)[C@H](O)[C@@H]1O)Oc1ccccc1 | 79.6
Cc1nnc(SC(=O)c2cccc3cc[nH]c23)s1 | 437
Cc1nnc(SC(=O)c2cccc3[nH]ccc23)s1 | 367
Cc1nnc(SC(=O)c2ccc3ccccc3c2)s1 | 45
O=C(Sc1ncccn1)c1cc2ccccc2[nH]1 | 111
O=C(Sc1nncs1)c1cc2ccccc2[nH]1 | 562
Cc1nnc(SC(=O)c2cc3ccccc3n2C)s1 | 659
COc1nnc(SC(=O)c2cc3ccccc3[nH]2)s1 | 38.3
O=C(Oc1cncc(Cl)c1)c1cccc2[nH]ccc12 | 28.5
